From publication PMC5407577, “Functional and genetic evidence that nucleoside transport is highly conserved in Leishmania species: Implications for pyrimidine-based chemotherapy” (International Journal for Parasitology: Drugs and Drug …, 2017) come the findings set out here.

One assay concerns the target LmajNT1. Put plainly: [3H]-thymidine uptake by L. major promastigotes. Format: cell-based, Leishmania major. As to the method: (§1) Using the standard uptake technique as described for T. brucei and Leishmania species ([Wallace et al., 2002], [Al-Salabi and De Koning, 2005], [Gudin et al., 2006]), the dose- or time-dependent uptake of radiolabeled permeants was investigated.
(§2) Briefly, cells in the mid-to-late logarithmic stage of growth were harvested by centrifugation for 10 min at 1500×g. The cells were washed twice with transport assay buffer (AB: 33 mM HEPES, 98 mM NaCl, 4.6 mM KCl, 0.55 mM CaCl2, 0.07 mM MgSO4, 5.8 mM NaH2PO4, 0.3 mM MgCl2, 23 mM NaHCO3, 14 mM glucose, pH 7.3), resuspended at a density of 10^8 cells ml^−1 in AB, and left for 20–30 min at room temperature to recover from centrifugation stress. One hundred microliters of cell suspension was incubated at ambient temperature for a predetermined time with 100 μl radiolabeled test compound, in the presence or absence of unlabeled substrate or other competitive inhibitors. The incubation was terminated by the addition of ice-cold stop solution (AB containing saturating levels, usually 10 mM, of unlabeled permeant) and centrifugation through oil for 1 min at 13,000 × g. […] Radioactivity was determined by liquid scintillation counting in a Beckman LS6000 TA scintillation counter. Saturation data, inhibition data, and time courses were plotted to equations for linear or non-linear regression (hyperbolic or sigmoid curves), as appropriate. All experiments were performed in triplicate and on at least three independent occasions.
Subsequent experiments were performed with a 5 min incubation time.

In assay [1] the test system is L. mexicana promastigotes WT. Kind of assay: Alamar blue drug sensitivity assay, L. mexicana WT. Format: cell-based, Leishmania mexicana. To be noted: Leishmania mexicana, 72 h, WT promastigotes, 72 h + 48 h with dye, n ≥ 4. Here is the method: (§3) Sensitivity assays of Leishmania strains to various drugs using the viability dye resazurin (Alamar Blue) (Sigma-Aldrich) were performed using a protocol adapted from [Räz et al. (1997)], as described ([Al-Salabi et al., 2003], [Gould et al., 2008]). Pentamidine and diminazene were used as non-nucleoside controls and were obtained from Sigma-Aldrich, as were many purines, pyrimidines, and analogs, with the exceptions of 2-thiouridine and 4-thiouridine (TriLink BioTechnologies, San Diego, CA); 5′-deoxyuridine, and 2′-3′-dideoxyuridine (Carbosynth, Compton, UK); 5-fluoro-2′-deoxyuridine (Fluka); and 2-thiouracil (ICN Biomedicals, Cambridge, UK). A preliminary promastigote culture was diluted to a density of 2 × 10^6 cells/ml, of which 100 μl was added to wells of 96-well plates pre-loaded with 100 μl of doubling dilutions of test compounds, resulting in a final density of 1 × 10^6 cells/ml; the dilutions were over 2 rows of the plate (23 concentrations), with the last well containing only medium and serving as the no-drug control. The plates were incubated at 25 °C for 72 h before adding the Alamar Blue dye (20 μl of 12.5 mg resazurin sodium salt (Sigma) in 100 ml phosphate buffered saline (PBS; pH 7.4)). Since Leishmania parasites metabolize the Alamar Blue dye slower than trypanosomes ([Gould et al., 2008]), the cells were incubated with the dye for a further period of 48 h before measuring the fluorescence, using a FLUOstar Optima fluorimeter (BMG Labtech) at wavelengths of 544 nm for excitation and 620 nm for emission. […] Each experiment was performed independently at least 4 times; statistical significance was determined using Student's unpaired t-test.

Assay [2] has as its system L. major promastigotes WT. Kind of assay: Alamar blue drug sensitivity assay, L. major WT. The conditions noted are these: Leishmania major, WT promastigotes, 72 h + 48 h with dye, n ≥ 4. Format: cell-based, Leishmania major. Here is the method: as §3
(In general: Resazurin is reduced to fluorescent resorufin, in cell work by metabolically active cells.)

A further assay relates to Lmex5F2′dURes. Kind of assay: microbe, parasite or virus in culture. Format: cell-based, Leishmania mexicana. The conditions noted are these: for EC50: Leishmania mexicana; for RF (Resistance Factor = IC50 (resistant clone)/IC50 (WT)): Lmex5F2′dURes vs L. mexicana WT. As to the method:
as §3

The test system of the next assay is Lmex5FURes. Put plainly: microbe, parasite or virus in culture. The class given is cell-based, Leishmania mexicana. The conditions noted are these: for EC50: Leishmania mexicana; for RF (Resistance Factor = IC50 (resistant clone)/IC50 (WT)): Lmex5FURes vs L. mexicana WT. Here is the method:
as §3

For another assay, the system named is Lmaj5F2′dURes. Kind of assay: microbe, parasite or virus in culture. To be noted: for EC50: Leishmania major; for RF (Resistance Factor = IC50 (resistant clone)/IC50 (WT)): Lmaj5F2′dURes vs L. major WT. Format: cell-based, Leishmania major. As to the method: as §3
In a further assay the test system is Lmaj5FURes. Put plainly: microbe, parasite or virus in culture. The class given is cell-based, Leishmania major. To be noted: for EC50: Leishmania major; for RF (Resistance Factor = IC50 (resistant clone)/IC50 (WT)): Lmaj5FURes vs L. major WT. As to the method:
as §3

Assay [3] addresses LmexNT1. Put plainly: [3H]-adenosine uptake by L. mexicana promastigotes. The class given is cell-based, Leishmania mexicana. To be noted: inhibition of 0.05 μM [3H]-adenosine uptake; read-out: Ki.
Text: Using the standard uptake technique as described for T. brucei and Leishmania species ([Wallace et al., 2002], [Al-Salabi and De Koning, 2005], [Gudin et al., 2006]), the dose- or time-dependent uptake of radiolabeled permeants was investigated. The following radiolabels and specific activities were used: [^3H]-thymidine (Perkin Elmer; 56.6 Ci/mmol); [^3H]-adenosine (American Radiolabeled Chemicals UK; 40 Ci/mmol); [^3H]-uridine (American Radiolabeled Chemicals UK; 30 Ci/mmol); [^3H]-uracil (Perkin Elmer; 24.8 Ci/mmol); [^3H]-inosine (American Radiolabeled Chemicals UK; 20 Ci/mmol); [^3H]-5-fluorouracil (Moravek; 20 Ci/mmol).
as §2
We next investigated the transport of [^3H]-adenosine in L. mexicana promastigotes, which according to the efficient inhibition of [^3H]-thymidine by adenosine, should be taken up with high affinity.

The target of assay [4] is LmexNT1. The class given is cell-based, Leishmania mexicana. Here is the method:
as §1, §2

In assay [5] the target is LmexNT1. Format: cell-based, Leishmania mexicana. Here is the method:
as §1, §2
L. donovani is known to express one pyrimidine nucleoside transporter, LdNT1, which also transports adenosine ([Vasudevan et al., 1998], [De Koning et al., 2005]). In order to investigate whether this model held true for L. mexicana, the uptake of [^3H]-thymidine was studied. […] Care was taken throughout this study that whenever inhibition constants (Ki) or Michaelis-Menten constants (Km) were determined the conditions used had been verified to be well within the linear range of uptake.
The source holds these as a separate data set.

Another assay deals with LmexUU1. Format: cell-based, Leishmania mexicana. As to the method: as §1, §2
Setting [6] is: inhibition of 0.25 μM [3H]-thymidine uptake (total LmajNT1.1 + LmajNT1.2), 5 min.
Where [7] appears, read: inhibition of [3H]-uracil uptake, 4 min.

Where two headings read alike, the source gives them in different places.

As a reminder, the Ki is a measure of affinity in units of concentration, obtained from inhibition or displacement. The EC50 is the concentration needed to bring the measured effect to its halfway point. On to `O=c1ccn([C@@H]2O[C@H](CO)[C@@H](O)[C@H]2O)c(=S)[nH]1` [2-thiouridine], for which, at LmajNT1, the Ki amounted to 765 ± 68 µM. For the same compound, the EC50 in assay [1] and in assay [2] (72 h) was more than 5000 µM in each case.
For `O=c1ccn([C@H]2CC[C@@H](CO)O2)c(=O)[nH]1` [2′,3′-dideoxyuridine], the Ki at LmajNT1 was more than 2500 µM. Also, the EC50 in assay [1] and in assay [2] (72 h) was more than 5000 µM in each case.
For `O=C1C=CN([C@@H]2O[C@H](CO)[C@@H](O)[C@H]2O)C(=O)C1` [3-deazauridine], at LmajNT1 (setting [6]), the Ki was determined as 3670 ± 420 µM.
On the same count and under the same terms, as for `Cc1cn([C@H]2CC[C@@H](CO)O2)c(=O)[nH]c1=O` [3′-deoxythymidine], the figure is 1250 ± 44.5 µM.
With `O=c1ccn([C@@H]2O[C@H](CO)C[C@H]2O)c(=O)[nH]1` [3′-deoxyuridine], the EC50 in assay [1] and in assay [2] (72 h) was more than 5000 µM in each case.
As to `O=c1[nH]c(=S)ccn1[C@@H]1O[C@H](CO)[C@@H](O)[C@H]1O` [4-thiouridine], the Ki on LmajNT1 (setting [6]) was determined as 69 ± 18.1 µM. In addition, the EC50 in assay [1] and in assay [2] (72 h) was more than 5000 µM throughout.
Regarding `O=c1[nH]c(=O)n([C@H]2C[C@H](O)[C@@H](CO)O2)cc1Br` [5-bromo-2′-deoxyuridine], the EC50 in assay [1] and in assay [2] (72 h) was more than 5000 µM each time.
For the compound `O=c1[nH]cc(Br)c(=O)[nH]1` [5-bromouracil], the EC50 in assay [1] and in assay [2] (72 h) was more than 5000 µM in each case.
Regarding `O=c1[nH]c(=O)n([C@@H]2O[C@H](CO)[C@@H](O)[C@H]2O)cc1Br` [5-bromouridine], the EC50 in assay [1] and in [2] (72 h) was more than 5000 µM in each case.
With `O=c1[nH]c(=O)n([C@H]2C[C@H](O)[C@@H](CO)O2)cc1Cl` [5-chloro-2′-deoxyuridine], the EC50 in [1] and in assay [2] (72 h) was more than 5000 µM each time.
For the compound `O=c1[nH]c(=O)n([C@@H]2O[C@H](CO)[C@@H](O)[C@H]2O)cc1Cl` [5-chlorouridine], the half-maximal effective concentration (EC50) in [1] and in [2] (72 h) was more than 5000 µM each time.
As to `C[C@H]1O[C@@H](n2cc(F)c(=O)[nH]c2=O)[C@H](O)[C@@H]1O` [5-fluoro,5′-deoxyuridine], on LmajNT1 (setting [6]), the Ki came to 168 ± 32 µM.
As to `Nc1nc(=O)n([C@@H]2O[C@H](CO)[C@@H](O)[C@H]2O)cc1F` [5-fluorocytidine], the EC50 in assay [1] and in assay [2] (72 h) was more than 5000 µM each time.
Regarding `Nc1nc(=O)[nH]cc1F` [5-fluorocytosine], the EC50 in assay [1] and in assay [2] (72 h) was more than 5000 µM throughout.
As for `O=c1[nH]c(=O)n([C@H]2C[C@H](O)[C@@H](CO)O2)cc1I` [5-iodo-2′-deoxyuridine], the EC50 in assay [1] and in assay [2] (72 h) was more than 5000 µM throughout.
On to `O=c1[nH]c(=O)n([C@@H]2O[C@H](CO)[C@@H](O)[C@H]2O)cc1I` [5-iodouridine], for which the EC50 in assay [1] and in [2] (72 h) was more than 5000 µM in each case.
As for `Nc1nc(=O)n([C@H]2C[C@H](O)[C@@H](CO)O2)cc1F` [5F-2′dCtd, 5-Fluoro-2′-deoxycytidine], the EC50 was more than 5000 µM in the assay with Lmex5F2′dURes; 24 ± 0.9 µM with Lmex5FURes; 17.3 ± 1.8 µM in assay [1] (read-out: EC50); 3870 ± 621 µM with Lmaj5F2′dURes; 17 ± 1.8 µM in the assay with Lmaj5FURes; 38 ± 1.7 µM in [2] (read-out: EC50). In addition, the “RF (Resistance Factor = IC50 (resistant clone)/IC50 (WT))” value (from here on “RF”) in the assay with Lmex5F2′dURes is more than 290; with Lmex5FURes it was 1.4; in the assay with Lmaj5F2′dURes, 101; in the assay on Lmaj5FURes, 0.4.
In the case of `O=c1ccn([C@@H]2O[C@H](CF)[C@@H](O)[C@H]2O)c(=O)[nH]1` [5′-deoxy-5′-fluorouridine], the EC50 in [1] and in [2] (72 h) was more than 5000 µM in each case.
As for `C[C@H]1O[C@@H](n2ccc(=O)[nH]c2=O)[C@H](O)[C@@H]1O` [5′dUrd, 5′-deoxyuridine], the EC50 came to 461 ± 80 µM in assay [1] (read-out: EC50) and 525 ± 46 µM in assay [2] (read-out: EC50).
With `O=c1cn[nH]c(=O)[nH]1` [6-azauracil], the EC50 in assay [1] and in assay [2] (72 h) was more than 5000 µM throughout.
`Nc1ccn([C@@H]2O[C@H](CO)[C@@H](O)[C@H]2O)c(=O)n1` [cytidine]: the Ki on LmexNT1 [3] amounted to 149 ± 18 µM; at LmajNT1 (setting [6]), 1150 ± 108 µM; on LmexNT1 [4] (inhibition of 0.25 μM [3H]-uridine uptake in the presence of 1 mM uracil), 78.6 ± 15.1 µM; on LmexNT1 [5] (inhibition of 1 μM [3H]-thymidine uptake, 20 s), 82 ± 5 µM.
On to `Nc1cc[nH]c(=O)n1` [cytosine], for which, on LmexUU1 (setting [7]), the Ki is more than 5000 µM.
Regarding `N=C(N)c1ccc(/N=N/Nc2ccc(C(=N)N)cc2)cc1` [diminazene], the EC50 stood at 13.9 ± 1.9 µM in the assay with Lmex5F2′dURes; 7.2 ± 1.4 µM with Lmex5FURes; 7.4 ± 0.3 µM in assay [1] (read-out: EC50); 24.6 ± 1.5 µM in the assay with Lmaj5F2′dURes; 10 ± 1.6 µM in the assay with Lmaj5FURes; 9.8 ± 0.3 µM in [2] (read-out: EC50). Besides, the “RF” value in the assay with Lmex5F2′dURes was 1.8; with Lmex5FURes, 0.97; with Lmaj5F2′dURes it was 2.5; with Lmaj5FURes, 1.02.
With `O=c1[nH]cnc2nc[nH]c12` [hypoxanthine], the Ki was more than 1000 µM on LmexNT1 [4], more than 500 µM at LmexUU1 and more than 1000 µM at LmexNT1 [5].
As to `N=C(N)c1ccc(OCCCCCOc2ccc(C(=N)N)cc2)cc1` [pentamidine], the EC50 in the assay with Lmex5FURes came out at 5 ± 0.6 µM; in assay [1] (read-out: EC50), 4.6 ± 0.2 µM; in assay [2] (read-out: EC50), 3.3 ± 0.2 µM. In addition, the “RF” value in the assay on Lmex5FURes stood at 1.1.
As for `Cc1c[nH]c(=O)[nH]c1=O` [thymine], the Ki on LmajNT1 (setting [6]) is more than 1000 µM; on LmexUU1 (setting [7]) it was 560 ± 190 µM.
